melting point | SMILES
141 to 143 °C | CCNC(=O)c1nc(-c2ccc(C)c(C)c2)n(-c2cc(Cl)ccc2C)c1-c1cccc(Cl)c1 [Example 1, 1-(5-Chloro-2-methyl-phenyl)-5-(3-chloro-phenyl)-2-(3,4-dimethyl-phenyl)-1H-imidazole-4-carboxylic acid ethylamide]
157 to 160 °C | O=Cc1cc(-c2nc(C(=O)O)c(-c3ccc(F)c(Cl)c3)n2-c2cccc(Cl)c2F)cs1 [Example 293, 5-(3-Chloro-4-fluoro-phenyl)-1-(3-chloro-2-fluoro-phenyl)-2-(5-formyl-thiophen-3-yl)-1H-imidazole-4-carboxylic acid]
218 °C | Cc1ccc(-c2nc(C#N)c(-c3cccc(Cl)c3)n2-c2cc(Cl)ccc2C)cc1C [Example 3, 1-(5-chloro-2-methyl-phenyl)-5-(3-chloro-phenyl)-2-(3,4-dimethyl-phenyl)-1H-imidazole-4-nitrile]

Source: US20120149661A1, “TETRA-SUBSTITUTED HETEROARYL COMPOUNDS AND THEIR USE AS MDM2 AND/OR MDM4 MODULATORS” (NOVARTIS AG, priority 2009, published 2012)
